Reference: BindingDB's records for doi:10.1021/jm970524i (Dupont Pharmaceuticals, 1998)

Biological target: T1, Dimer of Gag-Pol polyprotein [489-587] (Human immunodeficiency virus 1, UniProt P04585)
T1 construct: 489-587
Test: Protease Inhibition Assay
Protocol: Inhibition of HIV protease was measured by assay of the cleavage of a fluorescent peptide substrate. The fluorescent product (2-aminobenzoyl-Ala-Thr-His-Gln-Val-Tyr) was separated from the fluorescent substrate by anion-exchange HPLC on a Mono-Q anion-exchange column (Pharmacia), and fluorescence was monitored at an excitation wavelength of 330 nm and an emission wavelength of 430 nm. Ki values for inhibitor binding were estimated at fixed concentrations of substrate and inhibitor from fractional activity measurements by use of the modified Michaelis-Menten equation.

Row | SMILES | Ki [nM] | Ki (pH 5.5, 37 °C) [nM]
1 | O=C1N(Cc2cccc(O)c2)[C@H](Cc2ccccc2)[C@H](O)[C@@H](O)[C@@H](Cc2ccccc2)N1Cc1cccc(O)c1 | 0.12 | –
2 | NC(=O)NC1=N[C@H](Cc2ccccc2)[C@H](O)[C@@H](O)[C@@H](Cc2ccccc2)N1 [[4R-(4a,5a,6B,7B)]-[Hexahydro-5,6-dihydroxy-4,7-bis(phenylmethyl)-2H-1,3-diazepin-2-ylidene]urea] | – | > 12500
3 | O=C1N(Cc2ccc(O)cc2)[C@H](Cc2ccccc2)[C@H](O)[C@@H](O)[C@@H](Cc2ccccc2)N1Cc1ccc(O)cc1 | 0.12 | –
4 | O=C1N(Cc2cccc(CO)c2)[C@H](Cc2ccccc2)[C@H](O)[C@@H](O)[C@@H](Cc2ccccc2)N1Cc1cccc(CO)c1 [(4R,5S,6S,7R)-4,7-dibenzyl-5,6-dihydroxy-1,3-bis({[3-(hydroxymethyl)phenyl]methyl})-1,3-diazepan-2-one] | 0.14 | –
5 | O=C1N(Cc2cccc([N+](=O)[O-])c2)[C@H](Cc2ccccc2)[C@H](O)[C@@H](O)[C@@H](Cc2ccccc2)N1Cc1cccc([N+](=O)[O-])c1 | 2.8 | –
